Measurements from publication PMC9217908, “Screening of commonly prescribed drugs for effects on the CAT1-mediated transport of L-arginine and arginine derivatives” (Amino Acids, 2022).
Read-outs that look alike come from different tables or passages of the source.

Columns and labels:
Assay in all cases: cell-based
[1] = target: T1, CAT1 (cationic amino acid transporter 1, CAT1/SLC7A1) (Homo sapiens, UniProt P30825); design: species or system HEK-CAT1 (HEK293 stably transfected); Inhibition of net CAT1-mediated [3H]-ADMA (1 uM) uptake, 2.5 min, scintillation counting, vector control subtracted; settings: HEK293, ADMA 1 uM as substrate; for inhibition at 20 µM: read-out: % Inhibition of ADMA uptake at 20 µM; for inhibition at 200 µM: read-out: % Inhibition of ADMA uptake at 200 µM
T1 construct: full-length human transporter stably transfected in HEK cells (HEK-CAT1); net uptake against HEK-VC vector control cells
T1 sequence (P30825 whole entry): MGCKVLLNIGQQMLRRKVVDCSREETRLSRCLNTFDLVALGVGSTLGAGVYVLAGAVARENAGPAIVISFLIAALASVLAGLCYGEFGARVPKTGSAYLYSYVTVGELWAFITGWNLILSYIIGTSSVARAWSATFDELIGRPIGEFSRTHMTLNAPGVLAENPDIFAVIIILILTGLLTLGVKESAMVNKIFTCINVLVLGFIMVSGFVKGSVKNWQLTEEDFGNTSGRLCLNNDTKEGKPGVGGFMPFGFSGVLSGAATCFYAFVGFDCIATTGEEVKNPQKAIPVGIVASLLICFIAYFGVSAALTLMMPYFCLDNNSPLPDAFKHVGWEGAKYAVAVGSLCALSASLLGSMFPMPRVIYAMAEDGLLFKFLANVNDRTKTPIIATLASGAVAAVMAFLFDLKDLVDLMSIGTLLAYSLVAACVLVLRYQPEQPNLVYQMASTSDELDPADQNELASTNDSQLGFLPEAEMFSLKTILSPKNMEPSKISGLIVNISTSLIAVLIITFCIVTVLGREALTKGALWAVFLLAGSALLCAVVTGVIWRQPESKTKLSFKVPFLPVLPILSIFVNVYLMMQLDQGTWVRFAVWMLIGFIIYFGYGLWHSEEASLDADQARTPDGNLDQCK
Procedure: (§1) Uptake and inhibition assays using HEK-CAT1 and HEK-VC cells and L-arginine, L-homoarginine, and ADMA as substrates were performed using the protocol described (Strobel et al. [2012]; Chafai et al. [2017]). Briefly, after incubation, the supernatant was replaced with transport buffer containing [^3H]- L-arginine for 5 min and 2.5 min for medium containing [^3H]-L-homoarginine or [^3H]-ADMA with or without the test compound. The reference drugs were screened at concentrations of 20 µM (Figs. 1A, 2A, and 3A) and 200 µM (Figs. 1B, 2B, and 3B). […] The net uptake was determined by subtracting the total amount taken up by control cells from the amount taken up by CAT1-expressing cells, which was expressed as a percentage of the amount taken up by the control. To determine the inhibitory effects of the drugs on CAT1-mediated transport of L-arginine, L-homoarginine, or ADMA, the control was measured in the absence of the potential inhibitor. The value for the percent inhibition was calculated as: Inhibition (%) = 100 – (V/V0 ^* 100), where V and V0 are the net uptake rates (uptake into HEK-CAT1 cells—uptake into HEK-VC cells) with and without test drugs, respectively. […] Each bar represents the effect of one compound on CAT1-mediated ADMA (1 μM) uptake as percent inhibition. Data were obtained from at least two independent experiments performed in triplicate (n = 6–9) and each test data from the independent experiment were normalized to the respective control data to get the value of percent inhibition. Negative inhibition values indicate stimulated CAT1-mediated uptake. Data were analyzed using one-way ANOVA and Dunnett’s multiple comparison test with p < 0.05. Bars showing a statistically significant inhibition or transport stimulation are shaded in black

[2] = target: T1, CAT1 (cationic amino acid transporter 1, CAT1/SLC7A1); design: species or system HEK-CAT1 (HEK293 stably transfected); Inhibition of net CAT1-mediated [3H]-L-arginine (100 uM) uptake, 5 min, scintillation counting, vector control subtracted; settings: HEK293, L-arginine 100 uM as substrate; for inhibition at 20 µM: read-out: % Inhibition of L-arginine uptake at 20 µM; for inhibition at 200 µM: read-out: % Inhibition of L-arginine uptake at 200 µM
Procedure: as §1, with “L-arginine (100” for “ADMA (1”

[3] = target: T1, CAT1 (cationic amino acid transporter 1, CAT1/SLC7A1); design: species or system HEK-CAT1 (HEK293 stably transfected); Inhibition of net CAT1-mediated [3H]-L-homoarginine (1 uM) uptake, 2.5 min, scintillation counting, vector control subtracted; settings: HEK293, L-homoarginine 1 uM as substrate; for inhibition at 20 µM: read-out: % Inhibition of L-homoarginine uptake at 20 µM; for inhibition at 200 µM: read-out: % Inhibition of L-homoarginine uptake at 200 µM
Procedure: as §1, with “CAT1-mediated L-homoarginine” for “CAT1-mediated ADMA”

COC(=O)[C@H](c1ccccc1Cl)N1CCc2sccc2C1 [Clopidogrel]
inhibition at 20 µM [1]: -11 ± 8.1%
inhibition at 200 µM [1]: -8.9 ± 14.9%
inhibition at 20 µM [2]: 6.4 ± 4.4%
inhibition at 200 µM [2]: 1.5 ± 4.1%
inhibition at 20 µM [3]: 1.9 ± 5.4%
inhibition at 200 µM [3]: 0.8 ± 3.1%

Nc1ccc(S(=O)(=O)c2ccc(N)cc2)cc1 [Dapsone]
inhibition at 20 µM [1]: 13.4 ± 4.4%
inhibition at 200 µM [1]: -11.8 ± 3.7%
inhibition at 20 µM [2]: -8.6 ± 4.3%
inhibition at 200 µM [2]: -27.2 ± 4.2%
inhibition at 20 µM [3]: -9.8 ± 4.4%
inhibition at 200 µM [3]: -24.7 ± 3.1%

CNCCCN1c2ccccc2CCc2ccccc21 [Desipramine]
inhibition at 20 µM [1]: -0.7 ± 3.1%
inhibition at 200 µM [1]: -37.6 ± 11.8%
inhibition at 20 µM [2]: -10.8 ± 2.3%
inhibition at 200 µM [2]: 8.3 ± 6.7%
inhibition at 20 µM [3]: -10.3 ± 2.1%
inhibition at 200 µM [3]: 11.6 ± 7.2%

COc1ccc2c(c1)[C@]13CCCC[C@@H]1[C@H](C2)N(C)CC3 [Dextromethorphan]
inhibition at 20 µM [1]: -3.3 ± 0.3%
inhibition at 200 µM [1]: 6.2 ± 3.4%
inhibition at 20 µM [2]: 7.3 ± 1.9%
inhibition at 200 µM [2]: 2.9 ± 3.4%
inhibition at 20 µM [3]: -0.5 ± 5.8%
inhibition at 200 µM [3]: 3.1 ± 0.7%

O=C(O)Cc1ccccc1Nc1c(Cl)cccc1Cl [Diclofenac]
inhibition at 20 µM [1]: 26.1 ± 5.3%
inhibition at 200 µM [1]: -21.2 ± 2.8%
inhibition at 20 µM [2]: -15.9 ± 2.5%
inhibition at 200 µM [2]: -91.4 ± 5%
inhibition at 20 µM [3]: -15.1 ± 2.1%
inhibition at 200 µM [3]: -23.1 ± 2.2%

O=C(O)c1cc(-c2ccc(F)cc2F)ccc1O [Diflunisal]
inhibition at 20 µM [1]: -42.4 ± 4.5%
inhibition at 200 µM [1]: 10 ± 2.1%
inhibition at 20 µM [2]: 26.6 ± 0.9%
inhibition at 200 µM [2]: -20.5 ± 3.3%
inhibition at 20 µM [3]: 27.9 ± 1%
inhibition at 200 µM [3]: -20 ± 0.5%

C[C@H]1O[C@@H](O[C@H]2[C@@H](O)C[C@H](O[C@H]3[C@@H](O)C[C@H](O[C@H]4CC[C@@]5(C)[C@H](CC[C@@H]6[C@@H]5CC[C@]5(C)[C@@H](C7=CC(=O)OC7)CC[C@]65O)C4)O[C@@H]3C)O[C@@H]2C)C[C@H](O)[C@@H]1O [Digitoxin]
inhibition at 20 µM [1]: 4.3 ± 3.3%
inhibition at 200 µM [1]: 21.5 ± 2.5%
inhibition at 20 µM [2]: -7.2 ± 8.2%
inhibition at 200 µM [2]: -14.1 ± 4.2%
inhibition at 20 µM [3]: -7.2 ± 2.7%
inhibition at 200 µM [3]: -12.6 ± 2.5%

C[C@H]1O[C@@H](O[C@H]2[C@@H](O)C[C@H](O[C@H]3[C@@H](O)C[C@H](O[C@H]4CC[C@@]5(C)[C@H](CC[C@@H]6[C@@H]5C[C@@H](O)[C@]5(C)[C@@H](C7=CC(=O)OC7)CC[C@]65O)C4)O[C@@H]3C)O[C@@H]2C)C[C@H](O)[C@@H]1O [Digoxin]
inhibition at 20 µM [1]: -7.4 ± 5.9%
inhibition at 200 µM [1]: 14.4 ± 4.6%
inhibition at 20 µM [2]: -4.3 ± 7.3%
inhibition at 200 µM [2]: -14.9 ± 17.8%
inhibition at 20 µM [3]: -4.8 ± 6.8%
inhibition at 200 µM [3]: -12.7 ± 0.8%

COc1ccc([C@@H]2Sc3ccccc3N(CCN(C)C)C(=O)[C@@H]2OC(C)=O)cc1 [Diltiazem]
inhibition at 20 µM [1]: 8.5 ± 4.3%
inhibition at 200 µM [1]: 9.1 ± 7.7%
inhibition at 20 µM [2]: -7.3 ± 7.7%
inhibition at 200 µM [2]: 29.3 ± 2.5%
inhibition at 20 µM [3]: 8.6 ± 4.3%
inhibition at 200 µM [3]: 29 ± 2.6%

C[C@H]1c2cccc(O)c2C(=O)C2=C(O)[C@]3(O)C(=O)C(C(N)=O)=C(O)[C@@H](N(C)C)[C@@H]3[C@@H](O)[C@@H]21 [Doxycycline]
inhibition at 20 µM [1]: 3.1 ± 6%
inhibition at 200 µM [1]: 9.9 ± 3.1%
inhibition at 20 µM [2]: 9.7 ± 4.1%
inhibition at 200 µM [2]: 6.2 ± 0.6%
inhibition at 20 µM [3]: 9.7 ± 4.1%
inhibition at 200 µM [3]: 9.6 ± 1.4%

CNCC[C@H](Oc1cccc2ccccc12)c1cccs1 [Duloxetine]
inhibition at 20 µM [1]: 1.9 ± 5.4%
inhibition at 200 µM [1]: -14.2 ± 4.9%
inhibition at 20 µM [2]: 6.1 ± 7.4%
inhibition at 200 µM [2]: 12.6 ± 2.6%
inhibition at 20 µM [3]: 7.6 ± 6.5%
inhibition at 200 µM [3]: 11.9 ± 3.1%

CCOC(=O)[C@H](CCc1ccccc1)N[C@@H](C)C(=O)N1CCC[C@H]1C(=O)O [Enalapril]
inhibition at 20 µM [1]: 27.2 ± 2.1%
inhibition at 200 µM [1]: 5.3 ± 1.8%
inhibition at 20 µM [2]: 9.9 ± 8.3%
inhibition at 200 µM [2]: -1.5 ± 1.6%
inhibition at 20 µM [3]: 12.7 ± 4.6%
inhibition at 200 µM [3]: -9.5 ± 1.2%

C[C@@H](O)[C@H]1C(=O)N2C(C(=O)O)=C(S[C@@H]3CN[C@H](C(=O)Nc4cccc(C(=O)O)c4)C3)[C@H](C)[C@H]12 [Ertapenem]
inhibition at 20 µM [1]: -4.1 ± 6%
inhibition at 200 µM [1]: 9.9 ± 3.1%
inhibition at 20 µM [2]: -28.9 ± 4.8%
inhibition at 200 µM [2]: -15.8 ± 5.9%
inhibition at 20 µM [3]: -28.5 ± 4.8%
inhibition at 200 µM [3]: -15.1 ± 1.6%

C#C[C@]1(O)CC[C@H]2[C@@H]3CCc4cc(O)ccc4[C@H]3CC[C@@]21C [Ethinylestradiol]
inhibition at 20 µM [1]: -1.6 ± 3.4%
inhibition at 200 µM [1]: -35.3 ± 0.8%
inhibition at 20 µM [2]: 7.4 ± 5.9%
inhibition at 200 µM [2]: -10.5 ± 3.3%
inhibition at 20 µM [3]: 8.2 ± 5.4%
inhibition at 200 µM [3]: -10.1 ± 0.5%

Cc1ccc(-c2ncc(Cl)cc2-c2ccc(S(C)(=O)=O)cc2)cn1 [Etorixocib]
inhibition at 20 µM [1]: -17.2 ± 13.5%
inhibition at 200 µM [1]: -22.8 ± 2.2%
inhibition at 20 µM [2]: 0.7 ± 3.8%
inhibition at 200 µM [2]: -20.7 ± 2.9%
inhibition at 20 µM [3]: -5.4 ± 2.1%
inhibition at 200 µM [3]: 31.8 ± 4.3%

CCOC(=O)C1=C(C)NC(C)=C(C(=O)OC)C1c1cccc(Cl)c1Cl (stereo not drawn) [Felodipine]
inhibition at 20 µM [1]: -7.4 ± 4.4%
inhibition at 200 µM [1]: 3.6 ± 2.1%
inhibition at 20 µM [2]: -2.2 ± 5.9%
inhibition at 200 µM [2]: -39.2 ± 1.4%
inhibition at 20 µM [3]: -9.6 ± 2.8%
inhibition at 200 µM [3]: -18.2 ± 1%

CC(C)OC(=O)C(C)(C)Oc1ccc(C(=O)c2ccc(Cl)cc2)cc1 [Fenofibrate]
inhibition at 20 µM [1]: -4.8 ± 2.1%
inhibition at 200 µM [1]: 0.2 ± 3.2%
inhibition at 20 µM [2]: 16.3 ± 6.6%
inhibition at 200 µM [2]: 13.1 ± 2%
inhibition at 20 µM [3]: 10.1 ± 2.9%
inhibition at 200 µM [3]: 8.9 ± 0.4%

C[C@]12CCC(=O)C=C1CC[C@H]1[C@@H]3CC[C@](O)(C(=O)CO)[C@@]3(C)C[C@H](O)[C@@]12F [Fludrocortisone]
inhibition at 20 µM [1]: 0.5 ± 3.9%
inhibition at 200 µM [1]: -43.9 ± 4.9%
inhibition at 20 µM [2]: -29.4 ± 8.1%
inhibition at 200 µM [2]: -24.6 ± 1%
inhibition at 20 µM [3]: -27 ± 6.7%
inhibition at 200 µM [3]: -15.1 ± 0.6%
